pIC50: −log10 of the molar value.
Key:
[1] = molecular target: Lysine-specific histone demethylase 1A (Homo sapiens, UniProt O60341)
Description: Inhibition of recombinant human LSD1 using fluorometric substrate by HRP based fluorimeter microplate reader assay

HeLa = assay: Antiproliferative activity against human HeLa cells assessed as inhibition of cell growth incubated for 72 hrs by CCK-8 assay; format: functional, cell-based
A549 = assay: cells; settings: Homo sapiens, A549, 72 h
Description: Antiproliferative activity against human A549 cells assessed as inhibition of cell growth incubated for 72 hrs by CCK-8 assay

NCI-H460 = assay: cells; settings: Homo sapiens, NCI-H460, 72 h
Description: Antiproliferative activity against human NCI-H460 cells assessed as inhibition of cell growth incubated for 72 hrs by CCK-8 assay

MCF7 = assay: cells; settings: Homo sapiens, MCF7, 72 h
Description: Antiproliferative activity against human MCF7 cells assessed as inhibition of cell growth incubated for 72 hrs by CCK-8 assay

MGC-803 = assay: cells; settings: Homo sapiens, MGC-803, 72 h
Description: Antiproliferative activity against human MGC-803 cells assessed as inhibition of cell growth incubated for 72 hrs by CCK-8 assay

in vitro = settings: human, THLE-2 cells
Description: Antiproliferative activity against human THLE-2 cells assessed as inhibition of cell growth incubated for 72 hrs by CCK-8 assay

Row | Compound | pIC50 [1] | pIC50 (HeLa) | pIC50 (A549) | pIC50 (NCI-H460) | pIC50 (MCF7) | pIC50 (MGC-803) | IC50 at 72 h (in vitro) [µM]
1 | Cc1ccc(Cn2cc(C(=O)N3CCC(N)CC3)c3cc(-c4ccc(C#N)cc4)c(-c4ccc(C)cc4)cc32)cc1 | 6.07 | – | – | – | – | – | –
2 | Cc1ccc(-c2cc3[nH]cc(C(=O)NC4CCNCC4)c3cc2-c2ccc(C#N)cc2)cc1 | 6.47 | – | – | – | – | – | –
3 | Cc1ccc(-c2cc3[nH]cc(C(=O)N4CCC(N)CC4)c3cc2-c2ccc(C(N)=O)cc2)cc1 | 4.66 | – | – | – | – | – | –
4 | CCc1ccc(-c2cc3[nH]cc(C(=O)N4CCC(N)CC4)c3cc2-c2ccc(C#N)cc2)cc1 | 6.91 | 4.83 | 4.76 | 4.57 | 4.83 | 4.89 | 29.6
5 | Cc1ccc(-c2cc3[nH]cc(C(=O)N4CCC(N)CC4)c3cc2-c2ccc(S(N)(=O)=O)cc2)cc1 | 4.64 | – | – | – | – | – | –
6 | Cc1ccc(-c2cc3[nH]cc(C(=O)NC4CCCNC4)c3cc2-c2ccc(C#N)cc2)cc1 (stereo unspecified) | 6.40 | – | – | – | – | – | –
7 | Cc1ccc(CS(=O)(=O)n2cc(C(=O)N3CCC(N)CC3)c3cc(-c4ccc(C#N)cc4)c(-c4ccc(C)cc4)cc32)cc1 | 5.76 | – | – | – | – | – | –
8 | COc1ccc(-c2cc3[nH]cc(C(=O)N4CCC(N)CC4)c3cc2-c2ccc(C#N)cc2)c(F)c1 | 6.68 | – | – | – | – | – | –
9 | Cc1ccc(-c2cc3c(cc2-c2ccc(C#N)cc2)c(C(=O)N2CCC(N)CC2)cn3S(=O)(=O)c2ccc(C#N)cc2)cc1 | 6.96 | – | – | – | – | – | –
10 | Cc1ccc(-c2cc3[nH]cc(C(=O)NCCN)c3cc2-c2ccc(C#N)cc2)cc1 | 6.74 | – | – | – | – | – | –
11 | Cc1ccc(-c2cc3c(cc2-c2ccc(C#N)cc2)c(C(=O)N2CCC(N)CC2)cn3Cc2ccc(Cl)cc2)cc1 | 6.16 | – | – | – | – | – | –
12 | N#Cc1ccc(-c2cc3c(C(=O)N4CCC(N)CC4)c[nH]c3cc2-c2cncnc2)cc1 | 6.02 | – | – | – | – | – | –
13 | Cc1ccc(-c2cc3c(cc2-c2ccc(C#N)cc2)c(C(=O)N2CCC(N)CC2)cn3Cc2cccc(C#N)c2)cc1 | 6.79 | 5.18 | 5.47 | 5.11 | 5.17 | 5.34 | 5.8
14 | Cc1ccc(-c2cc3[nH]cc(C(=O)N4CCC(N)CC4)c3cc2-c2ccc(C#N)nc2)cc1 | 6.94 | – | – | – | – | – | –
15 | CC(=O)Nc1ccc(S(=O)(=O)n2cc(C(=O)N3CCC(N)CC3)c3cc(-c4ccc(C#N)cc4)c(-c4ccc(C)cc4)cc32)cc1 | 6.78 | – | – | – | – | – | –
16 | Cc1ccc(-c2cc3[nH]cc(C(=O)N4CCC[C@@H](N)C4)c3cc2-c2ccc(C#N)cc2)cc1 | 6.47 | – | – | – | – | – | –
17 | Cc1ccc(-c2cc3c(cc2-c2ccc(C#N)cc2)c(C(=O)N2CCC(N)CC2)cn3C)cc1 | 7.92 | 5.15 | 5.26 | 5.33 | 5.15 | 5.28 | 7.3
18 | Cc1ccc(-c2cc3[nH]cc(C(=O)N4CCC(N)CC4)c3cc2-c2ccc(C#N)cc2)c(F)c1 | 7.20 | 4.57 | 5.64 | 4.55 | 4.77 | 4.62 | 27.8
19 | Cc1ccc(-c2cc3[nH]cc(C(=O)NCC4CCNC4)c3cc2-c2ccc(C#N)cc2)cc1 (stereo unspecified) | 6.68 | – | – | – | – | – | –
20 | Cc1ccc(-c2cc3[nH]cc(C(=O)NCCCN)c3cc2-c2ccc(C#N)cc2)cc1 | 6.82 | – | – | – | – | – | –
21 | Cc1ccc(-c2cc3[nH]cc(C(=O)N4CCC(CN)CC4)c3cc2-c2ccc(C#N)cc2)cc1 | 6.87 | – | – | – | – | – | –
22 | Cc1ccc(-c2cc3[nH]cc(C(=O)N4CCC(N)CC4)c3cc2-c2ccc(C#N)cc2)c(C)c1 | 6.93 | – | – | – | – | – | –

Row | Compound | pIC50 [1] | pIC50 (HeLa) | pIC50 (A549) | pIC50 (NCI-H460) | pIC50 (MCF7) | pIC50 (MGC-803) | IC50 at 72 h (in vitro) [µM]
23 | N#Cc1ccc(-c2cc3c(C(=O)N4CCC(N)CC4)c[nH]c3cc2-c2ccc(C(F)(F)F)cc2)cc1 | 6.05 | – | – | – | – | – | –
24 | Cc1cc(C)cc(-c2cc3[nH]cc(C(=O)N4CCC(N)CC4)c3cc2-c2ccc(C#N)cc2)c1 | 7.21 | 5.00 | 5.28 | 4.87 | 5.15 | 5.06 | 11.8
25 | Cc1ccc(-c2cc3[nH]cc(C(=O)N4CCC(N)CC4)c3cc2-c2ccc(C#N)cc2)cc1 | 7.28 | 4.85 | 5.38 | 4.56 | 5.00 | 5.03 | 23.9
26 | CCn1cc(C(=O)N2CCC(N)CC2)c2cc(-c3ccc(C#N)cc3)c(-c3ccc(C)cc3)cc21 | 7.55 | – | – | – | – | – | –
27 | N#Cc1ccc(-c2cc3c(C(=O)N4CCC(N)CC4)c[nH]c3cc2-c2ccoc2)cc1 | 6.01 | – | – | – | – | – | –
28 | Cc1ccc(-c2cc3[nH]cc(C(=O)N4CCC(N)CC4)c3cc2-c2ccc(C#N)cc2C)cc1 | 6.22 | – | – | – | – | – | –
29 | Cc1ccc(-c2cc3[nH]cc(C(=O)N4CCC(N)CC4)c3cc2-c2ccc(C#N)c(F)c2)cc1 | 7.06 | 4.87 | 5.57 | 4.75 | 4.83 | 4.92 | 13.3
30 | Cc1ccc(-c2cc3[nH]cc(C(=O)N4CCC[C@H](N)C4)c3cc2-c2ccc(C#N)cc2)cc1 | 7.07 | 4.94 | 5.06 | 4.79 | 5.21 | 5.05 | 17.5
31 | Cc1ccc(-c2cc3c(cc2-c2ccc(C(N)=O)cc2)c(C(=O)NC2CCNCC2)cn3C)cc1 | 4.70 | – | – | – | – | – | –
32 | Cc1ccc(-c2cc3[nH]cc(C(=O)N4CCNCC4)c3cc2-c2ccc(C#N)cc2)cc1 | 7.21 | 4.82 | 5.64 | 4.65 | 4.91 | 5.01 | 19.1
33 | Cc1ccc(-c2cc3[nH]cc(C(=O)N4CCC(N)CC4)c3cc2-c2ccc([N+](=O)[O-])cc2)cc1 | 4.70 | – | – | – | – | – | –
34 | Cc1ccc(-c2cc3[nH]cc(C(=O)N[C@H]4CC[C@H](N)CC4)c3cc2-c2ccc(C#N)cc2)cc1 | 6.19 | – | – | – | – | – | –
35 | Cc1ccc(-c2cc3[nH]cc(C(=O)N4CCC(N)CC4)c3cc2-c2ccc(C#N)cc2)cc1C | 7.30 | 4.86 | 5.37 | 4.73 | 4.83 | 4.81 | 20.8
36 | Cc1ccc(-c2cc3[nH]cc(C(=O)NCC4CCNCC4)c3cc2-c2ccc(C#N)cc2)cc1 | 7.22 | 4.90 | 4.81 | 5.03 | 5.07 | 5.01 | 16.1
37 | Cc1ccc(-c2cc3[nH]cc(C(=O)NC4CCNC4)c3cc2-c2ccc(C#N)cc2)cc1 (stereo unspecified) | 6.43 | – | – | – | – | – | –
38 | Cc1ccc(-c2cc3[nH]cc(C(=O)N4CCC(N)CC4)c3cc2-c2ccc(C#N)cc2)cc1F | 6.99 | 4.78 | 5.46 | 4.53 | 4.99 | 4.81 | 29.9
39 | Cc1ccc(-c2cc3c(cc2-c2ccc(C#N)cc2)c(C(=O)N2CCC(N)CC2)cn3C2CC2)cc1 | 7.74 | – | – | – | – | – | –
40 | Cc1ccc(-c2cc3c(cc2-c2ccc(C#N)cc2)c(C(=O)N2CCC(N)CC2)cn3C(C)C)cc1 | 7.82 | – | – | – | – | – | –
41 | Cc1ccc(-c2cc3[nH]cc(C(=O)NC4CCNC4)c3cc2-c2ccc(C(N)=O)cc2)cc1 (stereo unspecified) | 4.62 | – | – | – | – | – | –
42 | Cc1ccc(-c2cc3c(cc2-c2ccc(C#N)cc2)c(C(=O)N2CCC(N)CC2)cn3Cc2cccc(Br)c2)cc1 | 6.26 | – | – | – | – | – | –
43 | Cc1ccc(-c2cc3[nH]cc(C(=O)N4CCC(N)CC4)c3cc2-c2ccc(O)cc2)cc1 | 5.30 | – | – | – | – | – | –
44 | Cc1ccc(-c2cc3c(cc2-c2ccc(C#N)cc2)c(C(=O)N2CCC(N)CC2)cn3Cc2ccc(Br)cc2)cc1 | 6.00 | – | – | – | – | – | –

From ChEMBL document CHEMBL5352388 (Eur J Med Chem, 2022)
